Measured values as given in patent US10202347B2, “Compound, production method therefor, and use of said compound” (MICROBIAL CHEMISTRY RESEARCH FOUNDATION, priority 2013, dated 2019).
In brackets after ≈: the same amount, converted by molar mass. Like-named read-outs stand apart in the source and are kept apart here.

Key:
[1] = system: H. pylori JCM12095 strain; assay: Measurement of MIC for H. pylori JCM12095; format: cell-based; settings: Helicobacter pylori, JCM12095; HP medium, 144 hours, 37° C., microaerobic; read-out: MIC H. pylori JCM 12095
Procedure: (§1) Each of the above compounds was measured for minimum inhibitory concentration (MIC) for Helicobacter pylori.
(§2) Helicobacter pylori JCM12093 strain and H. pylori JCM12095 strain each were statically cultured in a HP medium (brain heart infusion broth (product of Becton, Dickinson Co.) supplemented with 10% fetal bovine serum (product of Life Technologies Co.)) for 144 hours at 37° C. under microaerobic culture conditions (microaerobic conditions (N2:O2:CO2=85:5:10)).
(§3) After completion of the culturing, the culture was suspended with the HP medium and diluted so that Helicobacter pylori was 2×10^6 CFU/mL to 9×10^6 CFU/mL.
(§4) Each of the test samples (each of the above compounds, clarithromycin, and ampicillin) was prepared with the HP medium to have a concentration of 256 mg/L. From this concentration, the test sample was 2-fold diluted serially in 15 steps to 0.0078 mg/L.
(§5) The above-diluted culture was added at 50 μL/well to 50 μL/well of the HP medium containing each of the test samples at the above concentrations, and was statically cultured for 144 hours at 37° C. under microaerobic culture conditions (microaerobic conditions (N2:O2:CO2=85:5:10)). After completion of the culturing, the presence or absence of proliferation of each bacterium was visually determined based on turbidity, and the MIC for each bacterial strain was obtained.

[2] = system: Helicobacter pylori JCM12093 strain; assay: Measurement of MIC for Helicobacter pylori JCM12093; format: cell-based; settings: Helicobacter pylori, JCM12093; HP medium, 144 hours, 37° C., microaerobic; read-out: MIC Helicobacter pylori JCM 12093
Procedure: as §1, §2, §3, §4, §5

[3] = system: Haemophilus influenza T-196 strain; assay: Measurement of MIC for Haemophilus influenza T-196; format: cell-based; settings: HI medium, 18 hours, 37° C., 5% carbon dioxide; read-out: MIC Haemophilus influenzae T-196
Procedure: (§6) Each of the above compounds was measured for minimum inhibitory concentration (MIC) for Haemophilus influenza.
(§7) Haemophilus influenza T-196 strain and H. influenza ARD476 strain each were statically cultured in a HI medium (Muller Hinton medium (product of Becton, Dickinson Co.) supplemented with 5% Fildes enrichment (product of Becton, Dickinson Co.)) at 37° C. overnight under aerobic conditions containing 5% carbon dioxide gas.
(§8) After completion of the culturing, the culture was suspended with the HI medium and diluted so that each Haemophilus influenza strain was 2×10^6 CFU/mL to 9×10^6 CFU/mL.
(§9) Each of the test samples (each of the above compounds, clarithromycin, and ampicillin) was prepared with the HI medium to have a concentration of 256 mg/L. From this concentration, the test sample was 2-fold diluted serially in 11 steps to 0.125 mg/L.
(§10) The above-diluted culture was added at 50 μL/well to 50 μL/well of the HI medium containing each of the test samples at the above concentrations, and was statically cultured for 18 hours at 37° C. under aerobic conditions containing 5% carbon dioxide gas.
(§11) After completion of the culturing, the presence or absence of proliferation of each bacterium was visually determined based on turbidity, and the MIC for each bacterial strain was obtained.

[4] = system: Staphylococcus aureus FDA209P strain; assay: Measurement of MIC for Staphylococcus aureus; format: cell-based; settings: nutrient broth medium, 37° C. overnight, read-out: MIC Staphylococcus aureus FDA209P
Procedure: (§12) Each of the above compounds was measured for minimum inhibitory concentration (MIC) for Staphylococcus aureus and Escherichia coli.
(§13) Staphylococcus aureus FDA209P strain and Escherichia coli K-12 strain each were cultured under shaking in a nutrient broth medium (polypeptone (product of NIHON PHARMACEUTICAL Co.) 1%, fish extract for bacteria (product of KYOKUTO PHARMACEUTICAL INDUSTRIAL Co.) 1%, and sodium chloride 0.2%) at 37° C. overnight.
(§14) After completion of the culturing, the culture was diluted with the nutrient broth medium so that the bacteria were 2×10^6 CFU/mL to 9×10^6 CFU/mL.
(§15) Each of the test samples (each of the above compounds, clarithromycin, and ampicillin) was prepared with the nutrient broth medium to have a concentration of 256 mg/L. From this concentration, the test sample was 2-fold diluted serially in 11 steps to 0.125 mg/L.
as §5, with “nutrient broth” for “HP”, “cultured” for “cultured for 144 hours”, “overnight.” for “under microaerobic culture conditions (microaerobic conditions (N2:O2:CO2=85:5:10)).”

[5] = system: Enterococcus faecalis JCM5803 strain; assay: Measurement of MIC for Enterococcus faecalis; format: cell-based; settings: JCM5803, heart infusion broth medium, 37° C., 18 hours, read-out: MIC Enterococcus faecalis JCM5803
Procedure: Each of the above compounds was measured for minimum inhibitory concentration (MIC) for Enterococcus faecalis.
Enterococcus faecalis JCM5803 strain was cultured under shaking in a heart infusion broth medium (product of Becton, Dickinson Co.) at 37° C. overnight.
After completion of the culturing, the culture was diluted with the heart infusion broth medium so that the bacteria were 2×10^4 CFU/mL to 9×10^4 CFU/mL.
Each of the test samples (each of the above compounds, clarithromycin, and ampicillin) was prepared with the heart infusion broth medium to have a concentration of 256 mg/L. From this concentration, the test sample was 2-fold diluted serially in 11 steps to 0.125 mg/L.
The above-diluted culture was added at 50 μL/well to 50 μL/well of the heart infusion broth medium containing each of the test samples at the above concentrations, and was statically cultured at 37° C. for 18 hours.
as §11

[6] = system: Escherichia coli K-12 strain; assay: Measurement of MIC for Escherichia coli; format: cell-based; settings: K12STRAIN, nutrient broth medium, 37° C. overnight, read-out: MIC Escherichia coli K-12
Procedure: as §12, §13, §14, §15
as §5, with “nutrient broth” for “HP”, “cultured” for “cultured for 144 hours”, “overnight.” for “under microaerobic culture conditions (microaerobic conditions (N2:O2:CO2=85:5:10)).”

[7] = system: H. influenza ARD476 strain; assay: Measurement of MIC for H. influenza ARD476; format: cell-based; settings: Haemophilus influenzae, ARD476STRAIN; HI medium, 18 hours, 37° C., 5% carbon dioxide; read-out: MIC H. influenzae ARD476
Procedure: as §6, §7, §8, §9, §10, §11

[8] = system: human stomach cancer cells MKN-74 cocultured with normal stromal cells derived from the human stomach, Hs738; assay: Cell proliferation test, coculture test with normal stromal cells Hs738 (GFP fluorescence); format: cell-based; settings: coculture test, MKN-74 with stromal cells Hs738, cell proliferation rate, average of duplicate, read-out: Cocul IC50
Procedure: (§16) Human stomach cancer cells MKN-74 (Riken Cell Bank) were cultured at 37° C. and 5% CO2 in DMEM supplemented with 10% FBS (product of GIBCO Co.), 100 units/mL penicillin G (product of Invitrogen Co.), and 100 μg/mL streptomycin (product of Invitrogen Co.).
(§17) The above cancer cells were allowed to undergo gene transfer of Green fluorescence protein (GFP) expression vector, pEGFP-C1 (product of BD Biosciences Co.) using the Lipofectamine reagent (product of Invitrogen Co.), to thereby clone cells stably expressing GFP.
Normal stromal cells derived from the human stomach, Hs738 ((CRL-7869), ATCC) were cultured at 37° C. and 5% CO2 in DMEM supplemented with 10% FBS, 100 units/mL penicillin G (product of Invitrogen Co.), 100 μg/mL streptomycin (product of Invitrogen Co.), 5 μg/mL insulin, 5 μg/mL transferrin (product of Wako Pure Chemical Industries Co.), 1.4 μM hydrocortisone (product of Sigma Co.), and […] basic-FGF (product of Pepro Tech Co.).
The above normal stromal cells derived from the human stomach, Hs738 were dispersed at 5×10^4 cells/mL in DMEM containing 1% dialyzed serum, 5 μg/mL insulin, 5 μg/mL transferrine (product of Wako Pure Chemical Industries Co.), and 1.4 μM hydrocortisone (product of Sigma Co.), and were placed in a 96-well plate at 0.1 mL/well. Respective evaluation samples (the compounds expressed by Structural Formulas (1) to (13)) were added thereto at respective concentrations, followed by culturing at 37° C. and 5% CO2 for 2 days.
Next, the above human stomach cancer cells MKN-74 were dispersed in DMEM at 5×10^5 cells/mL, and were placed at 10 μL/well in the plate in which the above normal stromal cells derived from the human stomach, Hs738 had been cultured, followed by further coculturing at 37° C. and 5% CO2 for 3 days.
(§18) Measurement of cell proliferation rates in the above coculture test and monoculture test was performed in the following manner.
(§19) The medium was removed from the wells of the above plate, and a cytolysis liquid (10 mM Tris-HCl [pH 7.4], 150 mM NaCl, 0.9 mM CaCl2, and 1% Triton X-100) was added thereto at 0.1 mL/well to lyse the cells. The fluorescence intensity of GFP was measured at an excitation wavelength of 485 nm and a fluorescence wavelength of 538 nm, and the cell proliferation rates were calculated from the following formula. Cell proliferation rate (%)=(Fluorescence intensity in the presence of the evaluation sample/Fluorescence intensity in the absence of the evaluation sample)×100

[9] = Acute toxicity test (maximum tolerated dose); settings: female, ICR, mouse, in vivo, iv
Description: ICR mice (female, 4 weeks old, product of Charles River Co.) were bred under the SPF conditions.
One half of the administration dose at which the mice were recognized to be dead or have serious toxicity for the observation period of 2 weeks was defined as the maximum tolerated dose (MTD) in the present experiment.

[10] = system: human stomach cancer cells MKN-74; assay: Cell proliferation test, monoculture test (GFP fluorescence); format: cell-based; settings: monoculture test, MKN-74 alone, cell proliferation rate, average of duplicate, read-out: Mono IC50
Procedure: as §16, §17
Only DMEM containing 1% dialyzed serum, 5 μg/mL insulin, 5 μg/mL transferrine (product of Wako Pure Chemical Industries Co.), and 1.4 μM hydrocortisone (product of Sigma Co.) was placed in a 96-well plate at 0.1 mL/well, and respective evaluation samples (the compounds expressed by Structural Formulas (1) to (13)) were added thereto at respective concentrations, followed by maintaining at 37° C. and 5% CO2 for 2 days.
Next, the above human stomach cancer cells MKN-74 were dispersed in DMEM at 5×10^5 cells/mL, and were placed in the above plate at 10 μL/well, followed by further coculturing at 37° C. and 5% CO2 for 3 days.
as §18, §19

| Structure (SMILES) | MIC [1] [µg/mL] | MIC [2] [µg/mL] | MIC [3] [µg/mL] | MIC [4] [µg/mL] | MIC [5] [µg/mL] | MIC [6] [µg/mL] | MIC [7] [µg/mL] | IC50 [8] [µg/mL] | MTD at 2 weeks ([9]; MTD) [mg/kg] | IC50 [10] [µg/mL] | MTD at 2 weeks ([9]; intravenous administration, ICR mice, observed for 2 weeks, one half of the dose with death or serious toxicity, read-out: MTD) [mg/kg] |
| --- | --- | --- | --- | --- | --- | --- | --- | --- | --- | --- | --- |
| CC[C@H]1OC(=O)[C@H](C)[C@@H](O[C@H]2C[C@@](C)(OC)[C@@H](O)[C@H](C)O2)[C@H](C)[C@@H](O[C@@H]2O[C@H](C)C[C@H](N(C)C)[C@H]2O)[C@](C)(OC)C[C@@H](C)C(=O)[C@H](C)[C@@H](O)[C@]1(C)O [Clarithromycin, clarithromycin, reference compound] | 0.008 (≈ 0.0107 µM) | 0.008 (≈ 0.0107 µM) | 8 (≈ 10.7 µM) | < 0.125 | 0.5 (≈ 0.668 µM) | 16 (≈ 21.4 µM) | 4 (≈ 5.35 µM) |  |  |  |  |
| CCCCCCCCc1c(C)c(=O)c2ccccc2n1C#N [Structural Formula (7)] |  |  |  |  |  |  |  | 0.007 | 6.25 | > 100 |  |
| CCCCCCCCc1c(C)c(=O)c2ccccc2n1CNC(=O)SC [Structural Formula (10)] |  |  |  |  |  |  |  | 0.27 |  | 7.57 | ≥ 50 |
| CC1(C)S[C@@H]2[C@H](NC(=O)[C@H](N)c3ccccc3)C(=O)N2[C@H]1C(=O)O [ABPC, ampicillin, reference compound] | 0.13 (≈ 0.372 µM) | 0.25 (≈ 0.715 µM) | 0.5 (≈ 1.43 µM) | < 0.125 | 0.5 (≈ 1.43 µM) | 4 (≈ 11.4 µM) | 64 (≈ 183 µM) |  |  |  |  |
| CCCCCCCCc1c(C)c(=O)c2ccccc2n1CC(=O)SC [Structural Formula (9)] |  |  |  |  |  |  |  | 1.4 | ≥ 50 | 5.84 |  |
| CCCCCCCCc1nc2ccccc2c(OCC(=O)OC)c1C [Structural Formula (1)] |  |  |  |  |  |  |  | 0.35 | ≥ 50 | 28.1 |  |
